Results published in patent publication US20230017045A1, “PYRIDINE AND PYRIMIDINE CARBOXYLATE HERBICIDES AND METHODS OF USE THEREOF” (Dow AgroSciences LLC, priority 2017, published 2023).

System: test plant species
Assay: Post-emergent herbicidal activity test (greenhouse, foliar spray, visual growth reduction)
Format: in vivo
Conditions: post-emergence, 336 h, ALOMY: blackgrass (Alopecurus myosuroides), 140 g ai/ha, 14 days after application, read-out: Visual Growth Reduction (%) 14 Days After Application, ALOMY
Experimental: Post-emergent Test: Seeds or nutlets of the desired test plant species were planted in Sun Gro Metro-Mix® 360 planting mixture, which typically has a pH of 6.0 to 6.8 and an organic matter content of about 30 percent, in plastic pots with a surface area of 64 square centimeters. In some aspects, to ensure good germination and healthy plants, a fungicide treatment and/or other chemical or physical treatment was applied. The plants were grown for 7-21 d in a greenhouse with an approximate 15 h photoperiod which was maintained at 23-29° C. during the day and 22-28° C. during the night. Nutrients and water were added on a regular basis and supplemental lighting was provided with overhead metal halide 1000-Watt lamps as necessary. Plants were used for testing when they reached the first or second true leaf stage. A weighed amount, determined by the highest rate to be tested, of each test compound was placed in a 25 mL glass vial and was dissolved in 4 mL of a 97:3 v/v mixture of acetone and DMSO to obtain concentrated stock solutions. […] The concentrated stock solutions obtained were diluted with 20 mL of an aqueous mixture containing acetone, water, isopropyl alcohol, DMSO, […] crop oil concentrate, and X-77 surfactant in a 48.5:39:10:1.5:1.0:0.02 v/v ratio to obtain spray solutions containing the application rate. Compound requirements are based upon a 12 mL application volume at a rate of 187 liters per hectare (L/ha). Formulated compounds were applied to the plant material with an overhead Mandel track sprayer equipped with […] nozzles calibrated to deliver 187 L/ha over an application area of 0.64 square meters at a spray height of 18 inches (43 cm) above the average plant canopy height. Control plants were sprayed in the same manner with the solvent blank. The treated plants and control plants were placed in a greenhouse as described above and watered by subirrigation to prevent wash-off of the test compounds. After 14 d, the condition of the test plants as compared with that of the nontreated and control plants was determined visually and scored on a scale of 0 to 100 percent where 0 corresponds to no injury and 100 corresponds to complete control. In the reporting of the results, Table A: Percent Growth Reduction Conversion Table was used.

| SMILES | pest or weed control at 140 g/ha |
| --- | --- |
| COC(=O)c1nc(-c2ccc(C(F)(F)F)cc2Cl)c(C#N)cc1Cl [F3, Methyl 3-chloro-6-(2-chloro-4-(trifluoromethyl)phenyl)-5-cyanopicolinate] | 0 to 29% |
| COC(=O)c1nc(-c2cc(Br)c(C(F)(F)F)cc2Cl)ccc1Cl [F151, Methyl 6-(5-bromo-2-chloro-4-(trifluoromethyl)phenyl)-3-chloropicolinate] | 0 to 29% |

Same assay, conditions: post-emergence, 336 h, AMARE: redroot pigweed (Amaranthus retroflexus), 140 g ai/ha, 14 days after application, read-out: Visual Growth Reduction (%) 14 Days After Application, AMARE

| SMILES | pest or weed control at 140 g/ha |
| --- | --- |
| COC(=O)c1nc(-c2ccc(C(F)(F)F)cc2Cl)c(C#N)cc1Cl [F3, Methyl 3-chloro-6-(2-chloro-4-(trifluoromethyl)phenyl)-5-cyanopicolinate] | 0 to 29% |
| COC(=O)c1nc(-c2cc(Br)c(C(F)(F)F)cc2Cl)ccc1Cl [F151, Methyl 6-(5-bromo-2-chloro-4-(trifluoromethyl)phenyl)-3-chloropicolinate] | 95 to 100% |

Same assay, conditions: post-emergence, 336 h, AVEFA: wild oat (Avena fatua), 140 g ai/ha, 14 days after application, read-out: Visual Growth Reduction (%) 14 Days After Application, AVEFA

| SMILES | pest or weed control at 140 g/ha |
| --- | --- |
| COC(=O)c1nc(-c2ccc(C(F)(F)F)cc2Cl)c(C#N)cc1Cl [F3, Methyl 3-chloro-6-(2-chloro-4-(trifluoromethyl)phenyl)-5-cyanopicolinate] | 0 to 29% |
| COC(=O)c1nc(-c2cc(Br)c(C(F)(F)F)cc2Cl)ccc1Cl [F151, Methyl 6-(5-bromo-2-chloro-4-(trifluoromethyl)phenyl)-3-chloropicolinate] | 0 to 29% |

Same assay, conditions: post-emergence, 336 h, CHEAL: lambsquarters (Chenopodium album), 140 g ai/ha, 14 days after application, read-out: Visual Growth Reduction (%) 14 Days After Application, CHEAL

| SMILES | pest or weed control at 140 g/ha |
| --- | --- |
| COC(=O)c1nc(-c2ccc(C(F)(F)F)cc2Cl)c(C#N)cc1Cl [F3, Methyl 3-chloro-6-(2-chloro-4-(trifluoromethyl)phenyl)-5-cyanopicolinate] | 75 to 84% |
| COC(=O)c1nc(-c2cc(Br)c(C(F)(F)F)cc2Cl)ccc1Cl [F151, Methyl 6-(5-bromo-2-chloro-4-(trifluoromethyl)phenyl)-3-chloropicolinate] | 95 to 100% |

Same assay, conditions: post-emergence, 336 h, CIRAR: canada thistle (Cirsium arvense), 140 g ai/ha, 14 days after application, read-out: Visual Growth Reduction (%) 14 Days After Application, CIRAR

| SMILES | pest or weed control at 140 g/ha |
| --- | --- |
| COC(=O)c1nc(-c2ccc(C(F)(F)F)cc2Cl)c(C#N)cc1Cl [F3, Methyl 3-chloro-6-(2-chloro-4-(trifluoromethyl)phenyl)-5-cyanopicolinate] | 0 to 29% |
| COC(=O)c1nc(-c2cc(Br)c(C(F)(F)F)cc2Cl)ccc1Cl [F151, Methyl 6-(5-bromo-2-chloro-4-(trifluoromethyl)phenyl)-3-chloropicolinate] | 45 to 59% |

Same assay, conditions: post-emergence, 336 h, CYPES: yellow nutsedge (Cyperus esculentus), 140 g ai/ha, 14 days after application, read-out: Visual Growth Reduction (%) 14 Days After Application, CYPES

| SMILES | pest or weed control at 140 g/ha |
| --- | --- |
| COC(=O)c1nc(-c2ccc(C(F)(F)F)cc2Cl)c(C#N)cc1Cl [F3, Methyl 3-chloro-6-(2-chloro-4-(trifluoromethyl)phenyl)-5-cyanopicolinate] | 0 to 29% |
| COC(=O)c1nc(-c2cc(Br)c(C(F)(F)F)cc2Cl)ccc1Cl [F151, Methyl 6-(5-bromo-2-chloro-4-(trifluoromethyl)phenyl)-3-chloropicolinate] | 0 to 29% |

Same assay, conditions: post-emergence, 336 h, DIGSA: crabgrass (Digitaria sanguinalis), 140 g ai/ha, 14 days after application, read-out: Visual Growth Reduction (%) 14 Days After Application, DIGSA

| SMILES | pest or weed control at 140 g/ha |
| --- | --- |
| COC(=O)c1nc(-c2ccc(C(F)(F)F)cc2Cl)c(C#N)cc1Cl [F3, Methyl 3-chloro-6-(2-chloro-4-(trifluoromethyl)phenyl)-5-cyanopicolinate] | 60 to 74% |
| COC(=O)c1nc(-c2cc(Br)c(C(F)(F)F)cc2Cl)ccc1Cl [F151, Methyl 6-(5-bromo-2-chloro-4-(trifluoromethyl)phenyl)-3-chloropicolinate] | 0 to 29% |

Same assay, conditions: post-emergence, 336 h, ECHCG: barnyardgrass (Echinochloa crus-galli), 140 g ai/ha, 14 days after application, read-out: Visual Growth Reduction (%) 14 Days After Application, ECHCG

| SMILES | pest or weed control at 140 g/ha |
| --- | --- |
| COC(=O)c1nc(-c2cc(Br)c(C(F)(F)F)cc2Cl)ccc1Cl [F151, Methyl 6-(5-bromo-2-chloro-4-(trifluoromethyl)phenyl)-3-chloropicolinate] | 0 to 29% |

Same assay, conditions: post-emergence, 336 h, IPOHE: ivy-leaf morning glory (Ipomoea hederacea), 140 g ai/ha, 14 days after application, read-out: Visual Growth Reduction (%) 14 Days After Application, IPOHE

| SMILES | pest or weed control at 140 g/ha |
| --- | --- |
| COC(=O)c1nc(-c2cc(Br)c(C(F)(F)F)cc2Cl)ccc1Cl [F151, Methyl 6-(5-bromo-2-chloro-4-(trifluoromethyl)phenyl)-3-chloropicolinate] | 95 to 100% |

Same assay, conditions: post-emergence, 336 h, KCHSC: kochia (Bassia scoparia), 140 g ai/ha, 14 days after application, read-out: Visual Growth Reduction (%) 14 Days After Application, KCHSC

| SMILES | pest or weed control at 140 g/ha |
| --- | --- |
| COC(=O)c1nc(-c2cc(Br)c(C(F)(F)F)cc2Cl)ccc1Cl [F151, Methyl 6-(5-bromo-2-chloro-4-(trifluoromethyl)phenyl)-3-chloropicolinate] | 45 to 59% |

Same assay, conditions: post-emergence, 336 h, ORYSA: rice (Oryza sativa), 140 g ai/ha, 14 days after application, read-out: Visual Growth Reduction (%) 14 Days After Application, ORYSA

| SMILES | pest or weed control at 140 g/ha |
| --- | --- |
| COC(=O)c1nc(-c2cc(Br)c(C(F)(F)F)cc2Cl)ccc1Cl [F151, Methyl 6-(5-bromo-2-chloro-4-(trifluoromethyl)phenyl)-3-chloropicolinate] | 0 to 29% |

Same assay, conditions: post-emergence, 336 h, SETFA: giant foxtail (Setaria faberi), 140 g ai/ha, 14 days after application, read-out: Visual Growth Reduction (%) 14 Days After Application, SETFA

| SMILES | pest or weed control at 140 g/ha |
| --- | --- |
| COC(=O)c1nc(-c2cc(Br)c(C(F)(F)F)cc2Cl)ccc1Cl [F151, Methyl 6-(5-bromo-2-chloro-4-(trifluoromethyl)phenyl)-3-chloropicolinate] | 0 to 29% |

Same assay, conditions: post-emergence, 336 h, SORVU: grain sorghum (Sorghum vulgare), 140 g ai/ha, 14 days after application, read-out: Visual Growth Reduction (%) 14 Days After Application, SORVU

| SMILES | pest or weed control at 140 g/ha |
| --- | --- |
| COC(=O)c1nc(-c2cc(Br)c(C(F)(F)F)cc2Cl)ccc1Cl [F151, Methyl 6-(5-bromo-2-chloro-4-(trifluoromethyl)phenyl)-3-chloropicolinate] | 95 to 100% |

Same assay, conditions: post-emergence, 336 h, STEME: common chickweed (Stellaria media), 140 g ai/ha, 14 days after application, read-out: Visual Growth Reduction (%) 14 Days After Application, STEME

| SMILES | pest or weed control at 140 g/ha |
| --- | --- |
| COC(=O)c1nc(-c2cc(Br)c(C(F)(F)F)cc2Cl)ccc1Cl [F151, Methyl 6-(5-bromo-2-chloro-4-(trifluoromethyl)phenyl)-3-chloropicolinate] | 0 to 29% |

Same assay, conditions: post-emergence, 336 h, TRZAS: wheat, spring (Triticum aestivum), 140 g ai/ha, 14 days after application, read-out: Visual Growth Reduction (%) 14 Days After Application, TRZAS

| SMILES | pest or weed control at 140 g/ha |
| --- | --- |
| COC(=O)c1nc(-c2cc(Br)c(C(F)(F)F)cc2Cl)ccc1Cl [F151, Methyl 6-(5-bromo-2-chloro-4-(trifluoromethyl)phenyl)-3-chloropicolinate] | 0 to 29% |

Same assay, conditions: post-emergence, 336 h, barnyardgrass (Echinochloa crus-galli), 14 Days After Application, 140 g ai/ha, read-out: Visual Growth Reduction (%) ECHCG

| SMILES | pest or weed control at 140 g/ha |
| --- | --- |
| COC(=O)c1nc(-c2ccc(C(F)(F)F)cc2Cl)c(C#N)cc1Cl [F3, Methyl 3-chloro-6-(2-chloro-4-(trifluoromethyl)phenyl)-5-cyanopicolinate] | 0 to 29% |

Same assay, conditions: post-emergence, 336 h, common chickweed (Stellaria media), 14 Days After Application, 140 g ai/ha, read-out: Visual Growth Reduction (%) STEME

| SMILES | pest or weed control at 140 g/ha |
| --- | --- |
| COC(=O)c1nc(-c2ccc(C(F)(F)F)cc2Cl)c(C#N)cc1Cl [F3, Methyl 3-chloro-6-(2-chloro-4-(trifluoromethyl)phenyl)-5-cyanopicolinate] | 0 to 29% |

Same assay, conditions: post-emergence, 336 h, giant foxtail (Setaria faberi), 14 Days After Application, 140 g ai/ha, read-out: Visual Growth Reduction (%) SETFA

| SMILES | pest or weed control at 140 g/ha |
| --- | --- |
| COC(=O)c1nc(-c2ccc(C(F)(F)F)cc2Cl)c(C#N)cc1Cl [F3, Methyl 3-chloro-6-(2-chloro-4-(trifluoromethyl)phenyl)-5-cyanopicolinate] | 0 to 29% |

Same assay, conditions: post-emergence, 336 h, ivy-leaf morning glory (Ipomoea hederacea), 14 Days After Application, 140 g ai/ha, read-out: Visual Growth Reduction (%) IPOHE

| SMILES | pest or weed control at 140 g/ha |
| --- | --- |
| COC(=O)c1nc(-c2ccc(C(F)(F)F)cc2Cl)c(C#N)cc1Cl [F3, Methyl 3-chloro-6-(2-chloro-4-(trifluoromethyl)phenyl)-5-cyanopicolinate] | 60 to 74% |

Same assay, conditions: post-emergence, 336 h, johnsongrass (Sorghum vulgare), 14 Days After Application, 140 g ai/ha, read-out: Visual Growth Reduction (%) SORVU

| SMILES | pest or weed control at 140 g/ha |
| --- | --- |
| COC(=O)c1nc(-c2ccc(C(F)(F)F)cc2Cl)c(C#N)cc1Cl [F3, Methyl 3-chloro-6-(2-chloro-4-(trifluoromethyl)phenyl)-5-cyanopicolinate] | 0 to 29% |

Same assay, conditions: post-emergence, 336 h, kochia (Bassia scoparia), 14 Days After Application, 140 g ai/ha, read-out: Visual Growth Reduction (%) KCHSC

| SMILES | pest or weed control at 140 g/ha |
| --- | --- |
| COC(=O)c1nc(-c2ccc(C(F)(F)F)cc2Cl)c(C#N)cc1Cl [F3, Methyl 3-chloro-6-(2-chloro-4-(trifluoromethyl)phenyl)-5-cyanopicolinate] | 0 to 29% |

Same assay, conditions: post-emergence, 336 h, rice (Oryza sativa), 14 Days After Application, 140 g ai/ha, read-out: Visual Growth Reduction (%) ORYSA

| SMILES | pest or weed control at 140 g/ha |
| --- | --- |
| COC(=O)c1nc(-c2ccc(C(F)(F)F)cc2Cl)c(C#N)cc1Cl [F3, Methyl 3-chloro-6-(2-chloro-4-(trifluoromethyl)phenyl)-5-cyanopicolinate] | 0 to 29% |

Same assay, conditions: post-emergence, 336 h, wheat, spring (Triticum aestivum), 14 Days After Application, 140 g ai/ha, read-out: Visual Growth Reduction (%) TRZAS

| SMILES | pest or weed control at 140 g/ha |
| --- | --- |
| COC(=O)c1nc(-c2ccc(C(F)(F)F)cc2Cl)c(C#N)cc1Cl [F3, Methyl 3-chloro-6-(2-chloro-4-(trifluoromethyl)phenyl)-5-cyanopicolinate] | 0 to 29% |
